In the supplement of paper PMC10307832:

How the values were obtained:
Test in all cases: relative viability (nuclei count vs DMSO), 5 days (fraction); higher = more cells survive
[1] = compound: O=C(c1cc(Cc2n[nH]c(=O)c3ccccc23)ccc1F)N1CCN(C(=O)C2CC2)CC1 [Olaparib] + O=C(CCCCCCC(=O)Nc1ccccc1)NO [Vorinostat] (partner 1 µM)
Summary of the method: (§1)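 Five library-drug doses in √10 steps were combined with a fixed anchor-drug dose, or a single drug was given alone, by pin tool to lung cancer cell lines in 1536-well plates the day after seeding. Nuclei were stained and counted after 5 days. Relative viability is the nuclei count in treated wells over that in vehicle wells, taken as the median of duplicate plates.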

[2] = compound: O=C(c1cc(Cc2n[nH]c(=O)c3ccccc23)ccc1F)N1CCN(C(=O)C2CC2)CC1 [Olaparib] + Cc1cc(Nc2cc(N3CCN(C)CC3)nc(Sc3ccc(NC(=O)C4CC4)cc3)n2)n[nH]1 [Tozasertib] (partner 0.1 µM)
Summary of the method: as §1

[3] = compound: C[C@@H](Oc1cc(-c2cnn(C3CCNCC3)c2)cnc1N)c1c(Cl)ccc(F)c1Cl [Crizotinib] + N=C(N)NC(=N)NCCc1ccccc1 [Phenformin] (partner 250 µM)
Summary of the method: as §1

[4] = compound: O=C(c1cc(Cc2n[nH]c(=O)c3ccccc23)ccc1F)N1CCN(C(=O)C2CC2)CC1 [Olaparib] + CC1(C)CCC(c2ccc(Cl)cc2)=C(CN2CCN(c3ccc(C(=O)NS(=O)(=O)c4ccc(N[C@H](CCN5CCOCC5)CSc5ccccc5)c(S(=O)(=O)C(F)(F)F)c4)cc3)CC2)C1 [Navitoclax] (partner 0.5 µM)
Summary of the method: as §1

[5] = compound: CC(C)C[C@H](NC(=O)[C@H](CCc1ccccc1)NC(=O)CN1CCOCC1)C(=O)N[C@@H](Cc1ccccc1)C(=O)N[C@@H](CC(C)C)C(=O)[C@@]1(C)CO1 [Carfilzomib] + Nc1nc2[nH]cc(CCc3ccc(C(=O)N[C@@H](CCC(=O)O)C(=O)O)cc3)c2c(=O)[nH]1 [Pemetrexed] (partner 0.2 µM)
Summary of the method: as §1

**Q.** NCI-H1793 was tested. Which relative viability ([1]; first compound 0.08 µM) did it give?
**A.** 0.841

**Q.** And the relative viability ([1]; first compound 0.253 µM)?
**A.** 0.707

**Q.** What about the relative viability ([1]; first compound 2.53 µM) of the same cell line?
**A.** 0.683

**Q.** And the relative viability ([1]; first compound 8 µM)?
**A.** 0.679

**Q.** And the relative viability ([2]; first compound 0.08 µM)?
**A.** 0.324

**Q.** What about the relative viability ([2]; first compound 0.253 µM) of the same cell line?
**A.** 0.279

**Q.** And the relative viability ([2]; first compound 2.53 µM)?
**A.** 0.409

**Q.** And the relative viability ([2]; first compound 8 µM)?
**A.** 0.358

**Q.** What about the relative viability ([3]; first compound 0.03162 µM) of the same cell line?
**A.** 0.408

**Q.** What about the relative viability ([3]; first compound 0.1 µM) of the same cell line?
**A.** 0.343

**Q.** What about the relative viability ([3]; first compound 1 µM) of the same cell line?
**A.** 0.388

**Q.** What about the relative viability ([4]; first compound 0.08 µM) of the same cell line?
**A.** 0.406

**Q.** And the relative viability ([4]; first compound 0.253 µM)?
**A.** 0.421

**Q.** What about the relative viability ([4]; first compound 2.53 µM) of the same cell line?
**A.** 0.416

**Q.** What about the relative viability ([4]; first compound 8 µM) of the same cell line?
**A.** 0.385

**Q.** And the relative viability ([5]; first compound 0.001 µM)?
**A.** 0.58

**Q.** What about the relative viability ([5]; first compound 0.003162 µM) of the same cell line?
**A.** 1.13

**Q.** And the relative viability ([5]; first compound 0.01 µM)?
**A.** 0.861

**Q.** And the relative viability ([5]; first compound 0.03162 µM)?
**A.** 0.7

**Q.** And the relative viability ([5]; first compound 0.1 µM)?
**A.** 0.336
